Experimental data as given in publication PMC3176295 (Bioorganic & medicinal chemistry, 2011).

How the values were obtained:
[1] = test system: M. tuberculosis H37Rv; experiment: MIC determination by microbroth dilution against M. tuberculosis; type: cell-based, Mycobacterium tuberculosis; conditions: for antitubercular activity / MIC in words: M. tuberculosis
[2] = biological target: EphB (Rv1938) (Mycobacterium tuberculosis, UniProt I6YC03); type: biochemical; conditions: 10 nM
[3] = biological target: EphE (Rv3670) (Mycobacterium tuberculosis, UniProt O69638); experiment: EphE inhibition, fluorescent assay with Epoxy Fluor 7; type: biochemical, M. tuberculosis; conditions: for EphE activity in words: 10 nM; for % EphE Inhibition at 10 nM: inhibitor 10 nM, substrate 5 μM, duplicate; for inhibition at 0.01 µM: read-out: % EphE Inhibition at 10 nM, inhibitor 10 nM, substrate 5 μM, duplicate

EphB (Rv1938), sequence (I6YC03 whole entry): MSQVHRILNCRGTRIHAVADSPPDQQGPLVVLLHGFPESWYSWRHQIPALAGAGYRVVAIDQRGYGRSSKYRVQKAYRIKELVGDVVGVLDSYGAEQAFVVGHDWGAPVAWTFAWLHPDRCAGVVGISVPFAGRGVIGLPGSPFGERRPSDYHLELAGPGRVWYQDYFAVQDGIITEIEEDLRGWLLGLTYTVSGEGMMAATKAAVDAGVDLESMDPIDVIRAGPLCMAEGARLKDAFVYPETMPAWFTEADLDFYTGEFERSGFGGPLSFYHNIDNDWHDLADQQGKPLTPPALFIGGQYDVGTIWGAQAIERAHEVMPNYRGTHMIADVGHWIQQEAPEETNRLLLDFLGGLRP

## CCCCCCNC(=O)NC1C2CC3CC(C2)CC1C3 (stereo not shown) [Compound 20, 1-(2-Adamantyl)-3-hexylurea]
[1]
  antitubercular activity / MIC in words: good MIC values
[2]
  EphB inhibition in words: relatively poor EphB inhibition
[3]
  EphE activity in words: good EphE activity
  % EphE Inhibition at 10 nM: > 70%

## O=C(Nc1ccc(F)c(F)c1F)OC1C2CC3CC(C2)CC1C3 (stereo not shown) [Compound 32, 2-Adamantyl 2,3,4-trifluorophenylcarbamate]
[1]; carbamate, additional to the decrease of thiourea 31
  additional fold decrease in anti-M. tuberculosis potency: 10 fold

## Cc1ccc(NC(=O)NC2CCCCCCC2)cc1Cl [Compound 24, 1-(3-Chloro-4-methylphenyl)-3-cyclooctylurea]
[3]
  % EphE Inhibition at 10 nM: > 70%

## O=C(Nc1ccc(F)c(F)c1F)NC1C2CC3CC(C2)CC1C3 (stereo not shown) [Compound 1, 1-(2-Adamantyl)-3-(2,3,4-trifluorophenyl)urea]
[3]
  inhibition at 0.01 µM: > 70%

## Cc1ccc(NC(=O)NCC23CC4CC(CC(C4)C2)C3)cc1Cl [Compound 22, 1-(1-(1-Adamantyl)methyl)-3-(3-chloro-4-methylphenyl)urea]
[1]
  antitubercular activity / MIC in words: good MIC values
[2]
  EphB inhibition in words: relatively poor EphB inhibition
[3]
  EphE activity in words: good EphE activity

## COC(=O)c1ccc(NC(=O)NC23CC4CC(CC(C4)C2)C3)cc1O [Compound 36, Methyl 4-(3-(1-adamantyl)ureido)-2-hydroxybenzoate]
[1]
  antitubercular activity / MIC in words: good antitubercular activity

## COc1ccc(NC(=O)NC2C3CC4CC(C3)CC2C4)cc1 (stereo not shown) [Compound 35, 1-(2-Adamantyl)-3-(4-methoxyphenyl)urea]
[1]
  antitubercular activity / MIC in words: good antitubercular activity

## Fc1ccc(NC(=S)NC2C3CC4CC(C3)CC2C4)c(F)c1F (stereo not shown) [Compound 31, 1-(2-Adamantyl)-3-(2,3,4-trifluorophenyl)thiourea]
[1]; thiourea versus urea 1
  fold decrease in MIC activity: 80 fold

## N#Cc1ccc(NC(=O)NC2C3CC4CC(C3)CC2C4)cc1 (stereo not shown) [Compound 10, 1-(2-Adamantyl)-3-(4-cyanophenyl)urea]
[1]
  antitubercular activity / MIC in words: good MIC values
[2]
  EphB inhibition in words: relatively poor EphB inhibition
[3]
  EphE activity in words: good EphE activity

## CC(C)CCOc1ccc(NC(=O)Nc2ccc(OCCC(C)C)cc2)cc1 [Compound 41, 1,3-Bis(4-(isopentyloxy)phenyl)urea]
[1]
  antitubercular activity / MIC in words: inactive

## O=C(NCCc1ccccc1)NC1C2CC3CC(C2)CC1C3 (stereo not shown) [Compound 11, 1-(2-Adamantyl)-3-phenethylurea]
[1]
  antitubercular activity / MIC in words: good MIC values
[2]
  EphB inhibition in words: relatively poor EphB inhibition
[3]
  EphE activity in words: good EphE activity
  inhibition at 0.01 µM: > 70%

## O=C(NCC12CC3CC(CC(C3)C1)C2)Nc1ccc(F)c(F)c1F [Compound 3, 1-(1-(1-Adamantyl)methyl)-3-(2,3,4-trifluorophenyl)urea]
[1]
  antitubercular activity / MIC in words: good MIC values
[2]
  EphB inhibition in words: relatively poor EphB inhibition
[3]
  EphE activity in words: good EphE activity
  % EphE Inhibition at 10 nM: > 70%
